Test results as given in patent US6696494B2, “α-hydroxyarylbutanamine inhibitors of aspartyl protease” (Enanta Pharmaceuticals, Inc., priority 2001, dated 2004).

The compounds below were run against HIV-1 protease (Human immunodeficiency virus type 1 group M subtype B, UniProt P04585) (assay: Inhibition of microbial expressed viral protease (HIV-1 protease), method of Toth and Marshall).
Type: biochemical
Method: Biological Assay for Inhibition of Microbial Expressed Viral Protease
The inhibition constants against HIV-1 protease were measured using the method described by M. V. Toth and G. R. Marshall, Int. J. Peptide protein Res., 1990, 544. The method described M. W. Pennington et al., Peptides 1990, Gimet, E. and D. Andrew, Eds., Escom; Leiden, Netherlands (1990) may also be used. The potency is measured as IC50in μM. The person of skill would accept these tests as predictive of the compounds' utility in vivo to treat HIV infected patients.

First: CC(C)(C)NC(=O)c1ccccc1CC[C@@H](O)[C@H](Cc1ccccc1)NC(=O)COc1c(Cl)cccc1Cl [Example 001203]
Second: CC(C)(C)NC(=O)c1ccccc1CC[C@@H](O)[C@H](Cc1ccccc1)NC(=O)COc1c(Cl)cc(Cl)cc1Cl [Example 001224]
The IC50 of the first is higher: 0.1 to 10 µM for the first, under 0.1 µM for the second.

First: CC(C)(C)NC(=O)c1ccccc1CC[C@@H](O)[C@H](Cc1ccccc1)NC(=O)c1cc(F)cc(F)c1 [Example 000948]
Second: CC(C)(C)NC(=O)c1ccccc1CC[C@@H](O)[C@H](Cc1ccccc1)NC(=O)c1c(F)cccc1F [Example 000969]
The IC50 of the first is higher: over 10 µM for the first, 0.1 to 10 µM for the second.

`CC(C)(C)NC(=O)c1ccccc1CC[C@@H](O)[C@H](Cc1ccccc1)NC(=O)c1ccccc1C(=O)c1ccccc1` [Example 00968] and `CC(C)(C)NC(=O)c1ccccc1CC[C@@H](O)[C@H](Cc1ccccc1)NC(=O)c1ccc(C(=O)c2ccccc2)cc1` [Example 001047] fall in the same range of IC50: 0.1 to 10 µM for the first, 0.1 to 10 µM for the second.

First: CC(C)(C)NC(=O)c1ccccc1CC[C@@H](O)[C@H](Cc1ccccc1)NC(=S)Oc1ccc(F)cc1 [Example 001017]
Second: CC(C)(C)NC(=O)c1ccccc1CC[C@@H](O)[C@H](Cc1ccccc1)NC(=O)CCC(=O)c1ccc(F)cc1 [Example 000973]
The IC50 of the first is higher: over 10 µM for the first, under 0.1 µM for the second.

First: CC(C)(C)NC(=O)c1ccccc1CC[C@@H](O)[C@H](Cc1ccccc1)NS(=O)(=O)c1cccc(Cl)c1Cl [Example 001010]
Second: CC(C)(C)NC(=O)c1ccccc1CC[C@@H](O)[C@H](Cc1ccccc1)NS(=O)(=O)c1cccc2nonc12 [Example 001012]
The IC50 of the first is higher: over 10 µM for the first, 0.1 to 10 µM for the second. The second is the more potent here.

First: CC(C)(C)NC(=O)c1ccccc1CC[C@@H](O)[C@H](Cc1ccccc1)NC(=O)O[C@H]1CCOC1 [Example 000180]
Second: CC(C)(C)NC(=O)c1ccccc1CC[C@@H](O)[C@H](Cc1ccccc1)NC(=O)N1CCOCC1 [Example 001008]
The IC50 of the first is lower: under 0.1 µM for the first, 0.1 to 10 µM for the second. The first is the more potent here.

Compared with `Cc1cc(C(=O)O)ccc1OCC(=O)N[C@@H](Cc1ccccc1)[C@H](O)CCc1ccccc1C(=O)NC(C)(C)C` [Example 001279], `COc1cccc(C)c1OCC(=O)N[C@@H](Cc1ccccc1)[C@H](O)CCc1ccccc1C(=O)NC(C)(C)C` [Example 001213] is lower in IC50: 0.1 to 10 µM for the first, under 0.1 µM for the second.

First: CC(C)CNC(=O)c1ccccc1CC[C@@H](O)[C@H](Cc1ccccc1)NC(=O)OC(C)(C)C [Example 000156]
Second: CC(C)CCNC(=O)c1ccccc1CC[C@@H](O)[C@H](Cc1ccccc1)NC(=O)OC(C)(C)C [Example 000766]
The IC50 of the first is lower: under 0.1 µM for the first, 0.1 to 10 µM for the second.

`CC(C)(C)OC(=O)N[C@@H](Cc1ccccc1)[C@H](O)CCc1ccccc1C(=O)N[C@H](CO)c1ccccc1` [Example 001054] and `CC(C)(C)NC(=O)c1ccccc1CC[C@@H](O)[C@H](Cc1ccccc1)NC(=O)CSc1ccccc1` [Example 001190] fall in the same range of IC50: 0.1 to 10 µM for the first, 0.1 to 10 µM for the second.

First: Cc1cc(Br)cc(C)c1OCC(=O)N[C@@H](Cc1ccccc1)[C@H](O)CCc1ccccc1C(=O)NC(C)(C)C [Example 001218]
Second: Cc1cc(Br)cc(Cl)c1OCC(=O)N[C@@H](Cc1ccccc1)[C@H](O)CCc1ccccc1C(=O)NC(C)(C)C [Example 001216]
The IC50 of the first is lower: under 0.1 µM for the first, 0.1 to 10 µM for the second.

`Cc1cccc(C)c1OCC(=O)N[C@@H](Cc1ccccc1)[C@H](O)CCc1cccc(C)c1C(=O)NC(C)(C)C` [Example 001249] and `Cc1ccc(CC[C@@H](O)[C@H](Cc2ccccc2)NC(=O)COc2c(C)cccc2C)c(C(=O)NC(C)(C)C)c1` [Example 001237] cannot be ordered by IC50: under 0.1 µM for the first, under 0.1 µM for the second.

`CC(C)(C)NC(=O)c1ccccc1CC[C@@H](O)[C@H](Cc1ccccc1)NC(=O)CCc1ccccc1` [Example 000763] and `CC(C)(C)NC(=O)c1ccccc1CC[C@@H](O)[C@H](Cc1ccccc1)NC(=O)COc1ccccc1` [Example 000244] fall in the same range of IC50: 0.1 to 10 µM for the first, 0.1 to 10 µM for the second.

Compared with `CC(C)(C)NC(=O)c1ccccc1CC[C@@H](O)[C@H](Cc1ccccc1)NC(=O)c1ccc(N)cc1Cl` [Example 000944], `CC(C)(C)NC(=O)c1ccccc1CC[C@@H](O)[C@H](Cc1ccccc1)NC(=O)c1cc(N)ccc1Cl` [Example 000971] is lower in IC50: over 10 µM for the first, 0.1 to 10 µM for the second. The second is the more potent here.

Compared with `CC(C)(C)NC(=O)c1ccccc1CC[C@@H](O)[C@H](Cc1ccccc1)NC(=O)Nc1ccc([N+](=O)[O-])cc1` [Example 000889], `CC(C)(C)NC(=O)c1ccccc1CC[C@@H](O)[C@H](Cc1ccccc1)NC(=O)c1cccc([N+](=O)[O-])c1Br` [Example 000946] is higher in IC50: 0.1 to 10 µM for the first, over 10 µM for the second.

First: Cc1ccc(C(=O)C=CC(=O)NC(Cc2ccccc2)C(O)CCc2ccccc2C(=O)NC(C)(C)C)cc1 (stereo not shown) [Example 000950]
Second: Cc1c(O)cccc1C(=O)N[C@@H](Cc1ccccc1)[C@H](O)CCc1ccccc1C(=O)NC(C)(C)C [Example 000972]
The IC50 of the first is higher: over 10 µM for the first, under 0.1 µM for the second.

Compared with `CC(C)(C)NC(=O)c1ccccc1CC[C@@H](O)[C@H](Cc1ccccc1)NC(=O)c1cc(C(F)(F)F)ccc1Cl` [Example 001036], `CC(C)(C)NC(=O)c1ccccc1CC[C@@H](O)[C@H](Cc1ccccc1)NC(=O)c1ccccc1C(F)(F)F` [Example 001042] is lower in IC50: over 10 µM for the first, 0.1 to 10 µM for the second. The second is the more potent here.

`COc1ccc(C(=O)c2ccccc2C(=O)N[C@@H](Cc2ccccc2)[C@H](O)CCc2ccccc2C(=O)NC(C)(C)C)c(O)c1` [Example 001034] and `COc1ccc(Br)c(C(=O)N[C@@H](Cc2ccccc2)[C@H](O)CCc2ccccc2C(=O)NC(C)(C)C)c1` [Example 000900] fall in the same range of IC50: 0.1 to 10 µM for the first, 0.1 to 10 µM for the second.

`CCC(CC)OCC(=O)N[C@@H](Cc1ccccc1)[C@H](O)CCc1ccccc1C(=O)NC(C)(C)C` [Example 001231] and `CCNC(=O)N[C@@H](Cc1ccccc1)[C@H](O)CCc1ccccc1C(=O)NC(C)(C)C` [Example 000771] fall in the same range of IC50: 0.1 to 10 µM for the first, 0.1 to 10 µM for the second.

`COc1cccc(F)c1OCC(=O)N[C@@H](Cc1ccccc1)[C@H](O)CCc1ccccc1C(=O)NC(C)(C)C` [Example 001217] and `COc1cccc(OC)c1OCC(=O)N[C@@H](Cc1ccccc1)[C@H](O)CCc1ccccc1C(=O)NC(C)(C)C` [Example 001210] fall in the same range of IC50: 0.1 to 10 µM for the first, 0.1 to 10 µM for the second.

`CC(C)(C)NC(=O)c1ccccc1CC[C@@H](O)[C@H](Cc1ccccc1)NC(=O)c1ccccc1` [Example 000245] and `CC(Oc1ccccc1)C(=O)NC(Cc1ccccc1)C(O)CCc1ccccc1C(=O)NC(C)(C)C` (stereo not shown) [Example 000243] fall in the same range of IC50: 0.1 to 10 µM for the first, 0.1 to 10 µM for the second.

`CC1CCCCC1OCC(=O)NC(Cc1ccccc1)C(O)CCc1ccccc1C(=O)NC(C)(C)C` (stereo not shown) [Example 001229] and `CC(C)NC(=O)N[C@@H](Cc1ccccc1)[C@H](O)CCc1ccccc1C(=O)NC(C)(C)C` [Example 000892] fall in the same range of IC50: 0.1 to 10 µM for the first, 0.1 to 10 µM for the second.

`CCc1ccc(S(=O)(=O)N[C@@H](Cc2ccccc2)[C@H](O)CCc2ccccc2C(=O)NC(C)(C)C)cc1` [Example 000874] and `CC(C)(C)NC(=O)c1ccccc1CC[C@@H](O)[C@H](Cc1ccccc1)NS(=O)(=O)c1ccc(C#N)cc1` [Example 000876] fall in the same range of IC50: 0.1 to 10 µM for the first, 0.1 to 10 µM for the second.

`CCOC(=O)N[C@@H](Cc1ccccc1)[C@H](O)CCc1ccccc1C(=O)NCCC(C)C` [Example 000770] and `CCCCNC(=O)N[C@@H](Cc1ccccc1)[C@H](O)CCc1ccccc1C(=O)NC(C)(C)C` [Example 000891] fall in the same range of IC50: 0.1 to 10 µM for the first, 0.1 to 10 µM for the second.

First: CCCCCNC(=O)N[C@@H](Cc1ccccc1)[C@H](O)CCc1ccccc1C(=O)NC(C)(C)C [Example 000890]
Second: CC(C)(C)NC(=O)c1ccccc1CC[C@@H](O)[C@H](Cc1ccccc1)NC(=O)NC(=O)CCl [Example 000869]
The IC50 of the first is lower: 0.1 to 10 µM for the first, over 10 µM for the second. The first is the more potent here.

First: CC(C)(C)NC(=O)c1ccccc1CC[C@@H](O)[C@H](Cc1ccccc1)NC(=O)c1cc(=O)c2ccccc2o1 [Example 000974]
Second: CC(C)(C)NC(=O)c1ccccc1CC[C@@H](O)[C@H](Cc1ccccc1)NC(=O)c1ccc(Cl)cc1Cl [Example 000902]
The IC50 of the first is higher: over 10 µM for the first, 0.1 to 10 µM for the second.

First: COc1cccc(OC)c1C(=O)N[C@@H](Cc1ccccc1)[C@H](O)CCc1ccccc1C(=O)NC(C)(C)C [Example 000966]
Second: Cc1ccc(CO)cc1C(=O)N[C@@H](Cc1ccccc1)[C@H](O)CCc1ccccc1C(=O)NC(C)(C)C [Example 000895]
The IC50 of the first is higher: 0.1 to 10 µM for the first, under 0.1 µM for the second.

`CC(C)(C)NC(=O)c1ccccc1CC[C@@H](O)[C@H](Cc1ccccc1)NC(=O)c1ccccc1Nc1ccccc1` [Example 001020] and `CC(C)(C)NC(=O)c1ccccc1CC[C@@H](O)[C@H](Cc1ccccc1)NC(=O)N1c2ccccc2Sc2ccccc21` [Example 00241] cannot be ordered by IC50: over 10 µM for the first, over 10 µM for the second.

`CCOC(=O)NC(Cc1ccccc1)C(O)C=Cc1ccccc1C(=O)NC(C)(C)C` (stereo not shown) [Example 000207] and `Cc1nocc1C(=O)N[C@@H](Cc1ccccc1)[C@H](O)CCc1ccccc1C(=O)NC(C)(C)C` [Example 001154] fall in the same range of IC50: 0.1 to 10 µM for the first, 0.1 to 10 µM for the second.

First: C=CCc1cccc(C)c1OCC(=O)N[C@@H](Cc1ccccc1)[C@H](O)CCc1ccccc1C(=O)NC(C)(C)C [Example 001206]
Second: Cc1ccc(C)c(OCC(=O)N[C@@H](Cc2ccccc2)[C@H](O)CCc2ccccc2C(=O)NC(C)(C)C)c1C [Example 001201]
The IC50 of the first is higher: 0.1 to 10 µM for the first, under 0.1 µM for the second.

`Cc1cc(Br)c(OCC(=O)N[C@@H](Cc2ccccc2)[C@H](O)CCc2ccccc2C(=O)NC(C)(C)C)c(Br)c1` [Example 001225] and `CC(C)(C)NC(=O)c1ccccc1CC[C@@H](O)[C@H](Cc1ccccc1)NC(=O)COc1c(Br)cc(F)cc1Br` [Example 001226] fall in the same range of IC50: 0.1 to 10 µM for the first, 0.1 to 10 µM for the second.

`Cc1ccccc1S(=O)(=O)NC(=O)N[C@@H](Cc1ccccc1)[C@H](O)CCc1ccccc1C(=O)NC(C)(C)C` [Example 001014] and `CC(C)(C)NC(=O)c1ccccc1CC[C@@H](O)[C@H](Cc1ccccc1)NC(=O)COc1ccccc1C(F)(F)F` [Example 001204] fall in the same range of IC50: 0.1 to 10 µM for the first, 0.1 to 10 µM for the second.

`CC(C)(C)NC(=O)c1ccccc1CC[C@@H](O)[C@H](Cc1ccccc1)NC(=O)COc1cccnc1Cl` [Example 001268] and `CC(C)(C)NC(=O)c1ccccc1CC[C@@H](O)[C@H](Cc1ccccc1)NC(=O)c1cc(Cl)cc(Cl)c1` [Example 000967] fall in the same range of IC50: 0.1 to 10 µM for the first, 0.1 to 10 µM for the second.
